# Source: patent US6468983B2, “RNase L activators and antisense oligonucleotides effective to treat telomerase-expressing malignancies” (The Cleveland Clinic Foundation, priority 1997, dated 2002)
# Several values for one entry are separate records, joined by “and”; a condition that tells them apart may be missing. Identical values can stand only once. Entries after “also recorded” stand apart in the source; their conditions may differ.
# How the values were obtained:
# [1] = tested on: U251-MG tumors; experiment: Subcutaneous xenografts in nude mice, intratumoral oligonucleotide; assay type: in vivo, Balb/c nude mice; conditions: for reduction in tumor size during the treatment period: intratumoral daily for 14 days, relative to starting size
# Protocol: (§1) U251-MG and U373 MG tumor cells (1.0×10^6 cells in 0.1 ml serum free DMEM and 0.1 ml Matrigel) were injected subcutaneously into the right flank of 8-12 week-old female Balb/c nude mice (5 mice for each treatment group). Tumor growth was monitored using calipers every 2- or 3-days. Tumor volume (V) was calculated as (L×W^2)/2, where L=length (mm) and W=width (mm). Oligonucleotide treatment was initiated when the tumors reached an average tumor volume of 60-100 mm^3 (about four to five weeks after injection). Oligonucleotides (5 nmol/20 microliter sterile distilled water) were administered by injecting them directly into the tumor every 24 hr for 7-14 days. Some experiments included lipofectamine at 1 microliter per 20 microliters final volume of oligonucleotide solution. Mice were sacrificed by cervical dislocation the day after the final injection and the tumors were removed, frozen rapidly and 12 μm sections were prepared for histological studies. During all of these experiments, which were approved by the CCF Research Programs Committee, the animals were housed and handled in accordance with the National Institutes of Health guidelines.
# [2] = tested on: U373-MG tumors; experiment: as above; assay type: in vivo, Balb/c nude mice; conditions: 5 nmol intratumoral daily for 7 days
# Protocol: as §1
# [3] = tested on: telomerase RNA (hTR); experiment: RT-PCR for telomerase RNA in oligonucleotide-treated U251-MG cells; assay type: cell-based, human; conditions: oligonucleotide 5 μM, 5 hours treatment
# Protocol: Chimeric oligonucleotides were synthesised on solid supports and purified as described previously (Torrence et al 1993; Lesiak et al 1993; Xiao et al 1994, 1996; Cirino et al 1997). Tumor cells were seeded at 3×10^5 cells/well (3 ml) in 6-well plates and incubated overnight at 37° C. Cells were then treated with oligonucleotides (5 μM). Five hours later total RNA was isolated by using Trizol solution (GIBCO BRL, Grand Island, N.Y.). Expression of telomerase RNA was determined with RT-PCR. The RNA was reverse transcribed into complementary DNA (cDNA) with random oligos used as a primer, and then the cDNA was diluted three times with buffer 10×PCR buffer (Perkin-Elmer, Norwalk, Conn.) at a final concentration of 1:4. The DNA at each dilution was amplified using primers to antisense and sense sequences on opposite sides of the human telomerase RNA sequence, 5′-[…]-3′ (SEQ ID NO:4) and 5′[…]-3′ […], respectively, or to the GAPDH coding sequence, 5′-[…]-3′ […] and 5′[…]-3′ (SEQ ID NO:7), respectively, producing DNA fragments of 400 bp for telomerase cDNA and 508 bp for the GAPDH cDNA, respectively. The PCR went for 30 cycles (94° C., 1 min; 55° C., 1 min; 72° C., 2 min) for telomerase and 30 cycles (94° C., 1 min; 60° C., 1 min; 74° C., 3 min) for GAPDH. The PCR products were analyzed by 1.2% agarose gel electrophoresis and ethidium bromide staining.
# Aliquots of U251-MG cells were treated with the “active” oligonucleotide and the two controls for 5 hours. RNA was then prepared from these cells and subjected to RT-PCR to detect telomerase RNA. […] In contrast, telomerase RNA (hTR) was present in cells treated with the control oligonucleotides; spA2-anti-hTR and spA4-anti-(M6)hTR. Thus, hTR could be selectively destroyed in U251-MG cells. Since the RT-PCR assay is not quantitative, it was not possible to assess whether treatment with the spA2-anti-hTR , which has the fully complementary target sequence, had any antisense effect by itself (see below). […]
# [4] = tested on: human melanoma cell line, SK-MEL-2; experiment: Viable cell count, daily oligonucleotide plus lipofectamine; assay type: cell-based; conditions: SK-MEL-2, 0.5 micromolar daily plus lipofectamine
# Protocol: (§2) Cells (10,000/well) were seeded on 96 well tissue culture dishes, and treated every 24 hours. A 10× concentrated mixture of oligonucleotides plus lipofectamine in water was prepared containing 5 micromolar oligonucleotide and 80 microgram per ml lipofectamine™ (Gibco/BRL) and incubated for 10 min at room temperature. Media was removed from the cells, 10 microliters of the oligonucleotide/lipofectamine mixture was added directly to the cultured cells followed by 90 microliters of media plus serum. The media was changed with oligonucleotide/lipofectamine treatments every 24 h. Cells were passaged when the control cells reached confluency, and viable cells were counted after staining with Trypan Blue (GibcoBRL). The numbers of cells treated only with lipofectamine were used as the control to calculate percentages of cell survival or viability.
# (§3) Similarly, the viability of the breast cancer cell line, MDA468, was reduced by 64% by SpA4-anti-hTR, while the control oligonucleotides reduced cell viability by <20% (FIG. 6). Viability of the human melanoma cell line, A375, was reduced by 43% in three days by SpA4-anti-hTR, while the control oligonucleotides had no effect (FIG. 7). […] Viability of a third human melanoma cell line, SK-MEL-5, was reduced by 43% by SpA4-anti-hTR, with minimal effects by the control oligonucleotides (FIG. 7). Two prostate tumor cells lines, PC3 and DU145, were suppressed by SpA4-anti-hTR treatments by 45% and 60%, respectively (FIGS. 6 and 10). […] The viability of the malignant glioma cell line, U373, was reduced by about 60% in 3 days, with intermediate effects by the control oligonucleotides (FIG. 6). Therefore, the proliferation and survival of every tumor cell type tested was inhibited by SpA4-anti-hTR. […] In contrast, there was no apoptosis detected in the control cells treated with lipofectamine without oligonucleotide (FIG. 12 upper panel).
# [5] = tested on: human melanoma cell line, SK-MEL-5; experiment: as above; assay type: cell-based; conditions: SK-MEL-5, 0.5 micromolar daily plus lipofectamine
# Protocol: as §2, §3
# [6] = tested on: human melanoma cell line, A375; experiment: as above; assay type: cell-based; conditions: A375, 0.5 micromolar daily plus lipofectamine
# Protocol: as §2, §3
# [7] = tested on: prostate tumor cell line PC3; experiment: as above; assay type: cell-based, human; conditions: PC3, 0.5 micromolar daily plus lipofectamine
# Protocol: as §2, §3
# [8] = tested on: breast cancer cell line, MDA468; experiment: as above; assay type: cell-based, human; conditions: MDA468, 0.5 micromolar daily plus lipofectamine
# Protocol: as §2, §3
# [9] = tested on: prostate tumor cell line DU145; experiment: as above; assay type: cell-based, human; conditions: DU145, 0.5 micromolar daily plus lipofectamine
# Protocol: as §2, §3
# [10] = tested on: renal cell carcinoma cell line, RCC; experiment: as above; assay type: cell-based, human; conditions: 0.5 micromolar daily plus lipofectamine
# Protocol: as §2, §3
substance,measurement,setting,value
"Sp5′A2′p(5′A2p)3-[(Bu)p]2-5′GCG CGG GGA GCA AAA GCA C3′-3′T5′ (antisense GCGCGGGGAGCAAAAGCAC; 5'-thiophosphate 2-5A tetramer, butanediol linkers, 3'-3'T cap, chemistry not fully specified) [spA4-anti-hTR, 2-5A tetramer linked by butanediol linkers to 19-mer antisense against human telomerase RNA nucleotides 76 to 94]",tumor growth (in words),[1]; 5 nmol intratumoral daily for 7 days,significantly suppressed the growth; also recorded: failed to grow progressively
same,average net weight of the tumors after treatment,[1]; 14 days treatment,54.0 ± 28.7 mg
same,further change in tumor size (in words),[1]; days 8-14 of the treatment compared with first 7 days,only a marginal additional reduction in size
same,reduction in tumor size during the treatment period,[1],48% and 50%
same,reduction in tumor size during the treatment period,[1]; listed as 2-5A-anti-hTR,50%
same,tumor growth (in words),[2],significantly suppressed the growth; also recorded: failed to grow progressively
same,telomerase RNA (hTR) detected by RT-PCR,[3],no detectable telomerase RNA
same,effect on growth/viability (in words),[4],specifically suppressed growth
same,survival,[4],< 0.1%
same,effect on growth/viability (in words),[5],specifically suppressed growth
same,reduction in viability,[5],43%
same,effect on growth/viability (in words),[6],specifically suppressed growth
same,reduction in viability,[6]; three days,43%
same,effect on growth/viability (in words),[7],specifically suppressed growth
same,suppression of cells,[7],45%
same,effect on growth (in words),[8],specifically suppressed growth
same,reduction in viability,[8],64%
same,effect on growth/viability (in words),[9],specifically suppressed growth
same,suppression of cells,[9],60%
same,effect on growth/viability (in words),[10]; 3 days,specifically suppressed growth
same,reduction in viability,[10]; three days,61%
